Reference: patent US8697694B2, “Substituted pyridine and pyrimidine derivatives and their use in treating viral infections” (priority 2008, dated 2014)

Each molecule was assayed on HCV replicon cells (assay: Cell-based HCV replicon assay (replicon RNA level by real time PCR, Taqman)). Settings: Hepatitis C virus, 72 h, HCV replicon cells, harvested day 3, replicon RNA by real time PCR; reported as range class; read-out: EC90 (μM) range.
Outline: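 HCV replicon cells treated 3 days with 10 serial 2-fold compound dilutions (top 25 μM to 1 μM; 0.5% DMSO, 10% FBS). Replicon RNA quantified by multiplex Taqman RT-PCR (NS5B amplicon, GAPDH control); EC50 and EC90 = concentrations giving ΔCT of 1 and 3.2 over baseline.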

**Q.** `Cc1ccc2nc(-c3c(Cl)nc(N)nc3N[C@@H]3C[C@H](CO)[C@@H](O)[C@H]3O)oc2c1` [Example 191] was tested. Which EC90 did it give?
**A.** 0.5 to 5 µM

**Q.** Which EC90 does the source give for `OCCNc1nc(Cl)c(-c2nc3ccccc3s2)c(N[C@@H]2C[C@H](CO)[C@@H](O)[C@H]2O)n1` [Example 212] here?
**A.** < 0.5 µM

**Q.** Which EC90 does the source give for `CCN(CC)c1nc(Cl)c(-c2nc3ccccc3s2)c(N[C@@H]2C[C@H](CO)[C@@H](O)[C@H]2O)n1` [Example 411] here?
**A.** 0.5 to 5 µM

**Q.** Which EC90 does the source give for `Nc1nc(Cl)c(-c2nc3ccccc3s2)c(N[C@@H]2C[C@H](CO)[C@@H](O)[C@H]2O)n1` [Example 105] here?
**A.** < 0.5 µM

**Q.** `Nc1nc(Cl)c(-c2cccc(N3CCOCC3)n2)c(N[C@@H]2C[C@H](CO)[C@@H](O)[C@H]2O)n1` [Example 158] was tested. Which EC90 did it give?
**A.** > 5 µM

Same assay, conditions: Hepatitis C virus, 72 h, HCV replicon cells, harvested on day 3, replicon RNA by real time PCR; calculated EC90 reported as range class; read-out: EC90 (μM) range

**Q.** With `CCCCCNc1nc(Cl)c(-c2cc3cc(C)ncc3o2)c(N[C@@H]2C[C@H](CO)[C@@H](O)[C@H]2O)n1` [Example 451] as the molecule, how does the EC90 read?
**A.** < 0.5 µM

**Q.** For `CCc1cc2cc(-c3c(Cl)nc(NCCOC)nc3N[C@@H]3C[C@H](CO)[C@@H](O)[C@H]3O)oc2cn1` [Example 501], which EC90 is on record?
**A.** < 0.5 µM

**Q.** How did the EC90 turn out when `Cc1nc(NCCNS(C)(=O)=O)nc(N[C@@H]2C[C@H](CO)[C@@H](O)[C@H]2O)c1-c1nc2ccccc2s1` [Example 258] was run?
**A.** 0.5 to 5 µM

**Q.** How did the EC90 turn out when `Cc1nc(NCCN(C)C)nc(N[C@@H]2C[C@H](CO)[C@H]3OC(C)(C)O[C@H]32)c1-c1nc2ccccc2s1` [Example 245] was run?
**A.** > 5 µM

**Q.** For `Cc1ccccc1CNc1nc(C)c(-c2nc3ccccc3s2)c(N[C@@H]2C[C@H](CO)[C@H]3OC(C)(C)O[C@H]32)n1` [Example 487], which EC90 is on record?
**A.** > 5 µM

Same assay, conditions: Hepatitis C virus, 72 h, HCV replicon cells, replicon RNA level by real time PCR (Taqman), harvested on day 3; calculated EC90 reported as range class; read-out: EC90 (μM) range

**Q.** Which EC90 does the source give for `Cc1nc(NCC2CC2)nc(N[C@@H]2C[C@H](CO)[C@@H](O)C2)c1-c1nc2ccccc2s1` [Example 1240] here?
**A.** 0.5 to 5 µM

**Q.** `Cc1nc(NCC(C)(C)F)nc(N[C@@H]2C[C@H](CO)[C@@H](O)[C@H]2O)c1-c1nc2ccccc2s1` [Example 1243] was tested. Which EC90 did it give?
**A.** 0.5 to 5 µM

**Q.** For `Cc1ccc([C@@H](C)Nc2nc(C)c(-c3nc4ccccc4s3)c(N[C@@H]3C[C@H](CO)[C@@H](O)[C@H]3O)n2)cc1` [Example 1234], which EC90 is on record?
**A.** > 5 µM

**Q.** `Cc1nc(Nc2ccncc2)nc(N[C@@H]2C[C@H](CO)[C@@H](O)[C@H]2O)c1-c1nc2ccccc2s1` [Example 1051] was tested. Which EC90 did it give?
**A.** 0.5 to 5 µM

**Q.** `COCc1cc2cc(-c3c(C)nc(NCc4ccco4)nc3N[C@@H]3C[C@H](CO)[C@H]4OC(C)(C)O[C@H]43)oc2cn1` [Example 1107] was tested. Which EC90 did it give?
**A.** 0.5 to 5 µM

**Q.** Which EC90 does the source give for `Cc1nc(NCc2cc(F)cc(F)c2)nc(N[C@@H]2C[C@H](CO)[C@@H](O)[C@H]2O)c1-c1nc2cnccc2s1` [Example 1309] here?
**A.** < 0.5 µM

**Q.** `CC(=O)NC[C@H]1C[C@@H](Nc2nc(NCc3cccs3)nc(C)c2-c2nc3ccccc3s2)[C@H](O)[C@@H]1O` [Example 1331] was tested. Which EC90 did it give?
**A.** < 0.5 µM

Same assay, conditions: Hepatitis C virus, 72 h, HCV replicon cells, replicon RNA level by real time PCR, harvested day 3; read-out: EC90 (μM) range

**Q.** With `CCCc1nccc2sc(-c3c(C)nc(N[C@H](C)C4CC4)nc3N[C@@H]3C[C@H](CN(C)S(C)(=O)=O)[C@@H](O)[C@H]3O)nc12` [Example 1389] as the molecule, how does the EC90 read?
**A.** < 0.5 µM

**Q.** Which EC90 does the source give for `Cc1nc(N[C@H](C)C2CC2)nc(N[C@@H]2CC[C@@H](O)[C@@]2(C)O)c1-c1nc2c(C)nccc2s1` [Example 1817] here?
**A.** < 0.5 µM

**Q.** With `CCO[C@@H]1[C@H](O)[C@@H](CO)C[C@H]1Nc1nc(NCC(F)(F)F)nc(C)c1-c1nc2ccccc2s1` [Example 1352] as the molecule, how does the EC90 read?
**A.** < 0.5 µM

**Q.** For `Cc1ccccc1[C@@H](C)Nc1nc(C)c(-c2nc3c(C)nccc3s2)c(N[C@@H]2C[C@H](CO)[C@@H](O)[C@H]2O)n1` [Example 1527], which EC90 is on record?
**A.** < 0.5 µM

**Q.** How did the EC90 turn out when `Cc1nc(NCC2CC2)nc(N[C@@H]2C[C@H](C)[C@@H](O)[C@H]2O)c1-c1nc2cnccc2s1` [Example 1634] was run?
**A.** < 0.5 µM

**Q.** Which EC90 does the source give for `Cc1ccc([C@@H](C)Nc2cc(C)c(-c3nc4ccccc4s3)c(N[C@@H]3C[C@H](CO)[C@@H](O)[C@H]3O)n2)cc1` [Example 1619] here?
**A.** > 5 µM

**Q.** For `Cc1nc(NCc2c(F)cccc2F)nc(N[C@@H]2C[C@H](CO)[C@@H](O)[C@H]2O)c1-c1nc2cnccc2s1` [Example 1804], which EC90 is on record?
**A.** < 0.5 µM

**Q.** How did the EC90 turn out when `CCCc1nccc2sc(-c3c(C)nc(N[C@H](C)C4CC4)nc3N[C@@H]3C[C@H](Cn4ccnn4)[C@@H](O)[C@H]3O)nc12` [Example 1386] was run?
**A.** < 0.5 µM
